Data as given in patent US20240091248A1, “METHODS OF TREATING ACUTE MYELOID LEUKEMIA AND MANAGING CYTOPENIA” (GENENTECH, INC., priority 2021, published 2024).

Assays:
[1] = tested on: patients with acute myeloid leukemia (AML); assay: measurable residual disease (MRD) response analysis of the phase 3 study; format: in vivo, human; conditions: p<0.001
Protocol: Methods: Enrolled patients were ≥18 years and unfit for intensive chemotherapy. Patients received Ven 400 mg orally; days 1-28 and Aza 75 mg/m^2; days 1-7/28-day cycle. Bone marrow aspirate samples for multiparametric flow cytometry assessments by integrated leukemia-associated immunophenotypes and different than normal procedures were collected for central analysis (Covance Central Laboratory Services) at baseline, end of cycle 1, and every 3 cycles thereafter. Assessments were performed independent of disease responses. MRD response was defined as <1 residual blast/1000 leukocytes (<10^−3). CRc, DoR, OS, and EFS were assessed. Disease assessments were per modified International Working Group response criteria for AML.

Mcl-1 = Mcl-1 (Homo sapiens, UniProt Q07820); conditions: cited from earlier work
Chain of Mcl-1 (Q07820 whole entry): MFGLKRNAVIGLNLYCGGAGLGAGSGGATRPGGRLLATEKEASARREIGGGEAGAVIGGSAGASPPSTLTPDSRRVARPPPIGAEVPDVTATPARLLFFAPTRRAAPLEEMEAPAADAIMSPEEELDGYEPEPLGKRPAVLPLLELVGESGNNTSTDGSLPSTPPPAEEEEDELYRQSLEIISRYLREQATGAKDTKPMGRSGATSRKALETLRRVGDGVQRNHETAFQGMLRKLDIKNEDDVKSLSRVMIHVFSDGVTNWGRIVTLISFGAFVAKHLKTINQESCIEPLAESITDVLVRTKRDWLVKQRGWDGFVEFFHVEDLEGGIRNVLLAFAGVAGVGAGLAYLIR

[2] = tested on: patients with acute myeloid leukemia (AML); assay: venetoclax exposure versus overall survival in CR/CRh patients with post-remission cytopenia; format: in vivo, human; conditions: switched to 21-day dosing or remained on 28-day dosing, Cox proportional-hazards models

**Q.** With `Nc1ncn([C@@H]2O[C@H](CO)[C@@H](O)[C@H]2O)c(=O)n1` [Aza, 4-amino-1-β-D-ribofuranosyl-s-triazin-2(1H)-one] as the compound, how does the “rate of composite complete remission (CRc) and MRD response (MRD<10^−3)” value [1] read?
**A.** 7.6%

**Q.** For `CC1(C)CCC(CN2CCN(c3ccc(C(=O)NS(=O)(=O)c4ccc(NCC5CCOCC5)c([N+](=O)[O-])c4)c(Oc4cnc5[nH]ccc5c4)c3)CC2)=C(c2ccc(Cl)cc2)C1` [venetoclax, 4-(4-{[2-(4-chlorophenyl)-4,4-dimethylcyclohex-1-en-1-yl]methyl}piperazin-1-yl)-N-({3-nitro-4-[(tetrahydro-2H-pyran-4-ylmethyl)amino]phenyl}sulfonyl)-2-(1H-pyrrolo[2,3-b]pyridin5-yloxy)benzamide], which Ki (Mcl-1) is on record?
**A.** > 444 nM

**Q.** What about the “relationship between venetoclax exposure (Cavg) and overall survival” value [2] of the same compound?
**A.** no apparent relationship
